Experimental data taken from patent publication US3979508A, “Compositions and methods therewith for penicillin hypersensitivity detection” (Kremers-Urban Company, priority 1975, dated 1976).

What was measured:
[1] = system: penicillin hypersensitivity (patients); assay: Skin tests for penicillin hypersensitivity: monostereoisomeric penicilloyl-poly-L-lysine vs mixture of stereoisomers (Table II); format: in vivo, human
Method: (§1) One of the uses for the conjugates of this invention is in skin testing for penicillin hypersensitivity. The conjugated compositions are prepared for skin testing by first dissolving the composition in buffered isotonic solutions, having a pH in the range from 7 to 8. For example, the conjugates prepared above may be diluted with aqueous solutions 0.15 M NaCl in 0.01 M phosphate, pH 7.6. In addition, other physiological salt solutions may be used.
(§2) Intradermal injections may be made of the foregoing solutions with a 26 guage needle, the volume injected may be generally about 0.01 to 0.03 cc. Alternatively, the conjugate may be applied by the scratch test technique. The development of a wheal at the injection site after about 20 minutes indicates a positive reaction, and penicillin hypersensitivity.
(§3) Penicillin hypersensitivity tests carried out with the conjugate compositions of this invention reflect the numerous advantages of penicillin hypersensitivity determinations made with such compositions. […] In Table II the distribution of skin reactions is shown by history of penicillin therapy and hypersensitivity. […] (See column 2, for example, showing the percentages of patients tested who had […] skin test.)

[2] = system: penicillin hypersensitivity (patients); assay: Comparison of skin tests with penicilloyl-poly-L-lysine and penicillin G (Table III); format: in vivo, human; details: 1163 tested
Method: as §1, §2, §3

[3] = GROUP I: claimed prior history of non-sensitivity and previous penicillin treatments
[4] = GROUP II: claimed prior history of sensitivity and previous penicillin treatments
[5] = GROUP III: no prior history of sensitivity and no previous penicillin treatments

Question: Which results are given for penicilloyl-poly-L-lysine [PPL]?
Answer: NEGATIVE SKIN TESTS % [1, 3]: 91.5%; NEGATIVE SKIN TESTS No. [1, 3]: 4223; NEITHER NEGATIVE NOR POSITIVE SKIN TESTS % [1, 3]: 0.7%; NEITHER NEGATIVE NOR POSITIVE SKIN TESTS No. [1, 3]: 36; POSITIVE SKIN TESTS % [1, 3]: 7.8%; POSITIVE SKIN TESTS No. [1, 3]: 358; NEGATIVE SKIN TESTS % [1, 4]: 77.7%; NEGATIVE SKIN TESTS No. [1, 4]: 143; NEITHER NEGATIVE NOR POSITIVE SKIN TESTS % [1, 4]: nil; NEITHER NEGATIVE NOR POSITIVE SKIN TESTS No. [1, 4]: nil; POSITIVE SKIN TESTS % [1, 4]: 22.3%; POSITIVE SKIN TESTS No. [1, 4]: 41; NEGATIVE SKIN TESTS % [1, 5]: 96.5%; NEGATIVE SKIN TESTS No. [1, 5]: 637; NEITHER NEGATIVE NOR POSITIVE SKIN TESTS % [1, 5]: 0.2%; NEITHER NEGATIVE NOR POSITIVE SKIN TESTS No. [1, 5]: 1; POSITIVE SKIN TESTS % [1, 5]: 3.3%; POSITIVE SKIN TESTS No. [1, 5]: 22; NEGATIVE SKIN TESTS % ([1]; TOTALS, all groups): 91.6%; NEGATIVE SKIN TESTS No. ([1]; TOTALS, all groups): 5003; NEITHER NEGATIVE NOR POSITIVE SKIN TESTS % ([1]; TOTALS, all groups): 0.7%; NEITHER NEGATIVE NOR POSITIVE SKIN TESTS No. ([1]; TOTALS, all groups): 37; POSITIVE SKIN TESTS % ([1]; TOTALS, all groups): 7.7%; POSITIVE SKIN TESTS No. ([1]; TOTALS, all groups): 421; POSITIVE SKIN TESTS % [2]: 17.9%; Positive Skin Tests, Number of Patients [2]: 209
